# Literature values, collected in US10463045B2, “Agrochemical composition” (Nippon Soda Co., Ltd., priority 2015, dated 2019).
# Read-outs that look alike come from different tables or passages of the source.
compound,measurement,setting,value
5-butyl-2-dimethylamino-6-methylpyridin-4-ol [dimethirimol],solubility in water,25° C.,"1,200 mg/l"
"ClC=CCCl [D-D, 1,3-dichloropropene]",solubility in water,"E form, 20° C.","2,520 mg/l"
same,solubility in water,"Z form, 20° C.","2,450 mg/l"
"CC(C)N1C(=O)c2ccccc2NS1(=O)=O [bentazon, 3-isopropyl-1H-2,1,3-benzothiadiazin-4(3H)-one-2,2-dioxide]",solubility in water,20° C.,570 mg/L
"CN(CC[C@H](N)CC(=O)N[C@H]1C=C[C@H](n2ccc(N)nc2=O)O[C@@H]1C(=O)O)C(=N)N [blasticidin S, 1-(4-amino-1,2-dihydro-2-oxopyrimidin-1-yl)-4-[(S)-3-amino-5-(1-methyl-guanidino)valeramido]-1,2,3,4,-tetradioxy-β-D-erythrohexy-2-enopyranuronic acid]",solubility in water,20° C.,"30,000 mg/l"
"CC(C1CC1)C(O)(Cn1cncn1)c1ccc(Cl)cc1 (stereo not drawn) [cyproconazole, 2-(4-chlorophenyl)-3-cyclopropyl-1-(1H-1,2,4-triazol-1-yl) butan-2-ol]",solubility in water,pH 6.9,100 mg/L
"CN1CSC(=S)N(C)C1 [dazomet, 3,5-dimethyl-tetrahydro-2H-1,3,5-thiadiazine-2-thione]",solubility in water,20° C.,"3,500 mg/l"
N#CCNC(=O)c1cnccc1C(F)(F)F [flonicamid],solubility in water,20° C.,"5,200 mg/l"
"CNC(=O)ON=C(C)SC [methomyl, S-methyl-N-(methylcarbamoyloxy) thioacetimidate]",solubility in water,"20° C., pH 7","46,000 mg/l"
